Assays:
[1] = tested on: mice; experiment: Mechanical allodynia, von Frey assay; settings: for mechanical allodynia (in words): compared with the untreated mice
Method: (§1) Von Frey, hot plate, acetone evaporation, and ocular aperture ratio studies were carried out in Balb/c mice according to reported methods.[3] […] Final injection volume was 150 μL. Afterward, tests were carried out 1, 2, and 3 weeks post first injection.
8-week-old Balb/c mice were purchased from Envigo (Israel). Pain thresholds were assessed by observing withdrawal responses to mechanical stimulation of the plantar skin by using von Frey filaments. The mice were placed on a grid and allowed to accustom to the new environment for at least half an hour. The hind paw was touched vertically on the plantar surface with the tip of the filament. Once the fiber bends, the force applied is the maximum, making the repetitions reproducible. Hairs calibrated for forces between 0.008 and 2 g were applied 10 times each in ascending order of force at 5 s intervals to both hind paws. Sharp and quick leg withdrawal or immediate jumping in response to a touch with the hairs was considered as a withdrawal response. Paw movements associated with locomotion were not counted as the withdrawal response. The threshold of withdrawal response was defined when 6 out of 10 applications elicited pain responses. each group contained six animals.

[2] = Stability of the Pt(IV) compounds in RPMI medium, monitored by HPLC; type: physicochemical; settings: pH = 7, 37 °C, HPLC peak area
Method: The stability of the Pt(IV) compounds was measured in RPMI medium, at pH = 7 and 37 °C, by monitoring the peak area of the prodrugs as a function of time.
Pt(IV) complexes were dissolved in 1% DMSO and RPMI medium at pH 7.4, and kept at 37 °C. Stability half-lives, t1/2, were calculated by linear fitting of ln(At/A0) vs time (t), where At and A0 are the integrated peak areas by HPLC […].

[3] = Reduction by 10 equiv of ascorbic acid, monitored by HPLC; type: physicochemical; settings: 10 eq. ascorbic acid, pH = 7, 37 °C
Method: To verify that the Pt(IV) prodrugs are activated by reduction, we incubated them with 10 eq. of ascorbic acid at pH = 7 at 37 °C and monitored by HPLC the reduction of the peak of the parent compound as a function of time.
The half-lives (t1/2) of all compounds were obtained after linear fitting of ln(At/A0) vs time (t) by considering a pseudo-first-order rate equation (At = A0e^–kt), where A0 and At are the integrated areas of HPLC peaks of the respective complexes at t = 0 and at time t, respectively, and k (slope) is the rate constant. Then, t1/2 was calculated by utilizing the equation t1/2 = 0.693/k.

[4] = tested on: mice; type: in vivo; settings: acetone test; compared with cisplatin, paclitaxel, or their 1:1 co-administration
Method: (§2) The sensitivity to noxious heat was assessed by placing the mice on a hot plate (54 ± 1 °C) and measuring the latency (s), the time until the mice began licking their paws, shaking, or jumping to avoid the heat.
as §1
The test was carried out on a mesh floor, and acetone was dabbed on the plantar surface of the hind paw. Sensitivity to cold was recorded by the duration of nocifensive responses such as brisk withdrawal, flick of the paw, repeated flicking of the paw, repeated flicking of the hind paw, and licking of the paw. each group contained six animals.

[5] = tested on: mice; type: in vivo; settings: hot plate 54 ± 1 °C; compared with cisplatin, paclitaxel, or their 1:1 co-administration
Method: as §2, §1
Unrestrained mouse was placed on a metal surface that was maintained at a constant temperature (54 ± 1 °C) and the response latency, which is the time taken to observe a nocifensive behavior, was recorded. These behaviors include fore paw withdrawal or licking, hind paw withdrawal or licking, stamping, leaning posture, and jumping. each group contained six animals. If no nocifensive behaviors were observed, the animals were removed from the hot plate after 30 s to prevent tissue damage.

[6] = tested on: mice; experiment: Ongoing pain, eye-closing ratio; type: in vivo; settings: i.p. days 1, 3, 5
Method: Finally, we assessed whether the treatment with cisPt(OAc)2 or cisPt(Pac)(OH) prevents chemotherapy-induced ongoing pain, by assessing the eye-closing ratio.[53]−[55] The eye-closing ratio test was carried out prior to conducting the induced pain experiments. The eye-closing ratio was obtained by dividing the distance between the edges of the upper and lower eyelids by the length of the canthus (horizontal distance across the eye), where a value of 0 was given to completely closed eyes (indicating pain), and a value of 1 was given to fully open eyes (lack of pain).
as §1
The raw data for the ongoing pain was obtained by taking 3–5 photographs of each of the awake (not immobilized) mice and used such that the position of the eyelids in relation to the eye was clearly visible. The data were analyzed in a blind fashion by using the imaging software, ImageJ, to measure the length between the internal and external canthus (x) and the distance between the edge of the upper and lower eyelids (y). Finally, the ratio of y/x was calculated, and a value between 0 and 1 was obtained for each photo, where 0 is equivalent to the eye completely closed and 1 is equivalent to the eye completely open. The values obtained were an average of the values of the six animals in each group.

[7] = tested on: murine CT26 colon cancer model; experiment: In vivo inhibition of tumor growth; settings: CT26 s.c. in BALB/c mice, i.p. every other day up to 4 doses, equimolar: cisplatin 3, paclitaxel 8.5, combination 3 + 8.5, cisPt(Pac)(OH) and its micelles 12 mg/kg
[8] = tested on: all cancer cell lines; experiment: Antiproliferative MTT assay, summary over the panel; type: cell-based; settings: all cancer cell lines of the panel, 72 h
Method: (§4) After 72 h of exposure, the cell biomass was determined by 3-(4,5-dimethylthiazol-2-yl)-2,5-diphenyl tetrazolium bromide (MTT) (Sigma-Aldrich) staining, and the absorptions were calculated as the delta of two measurements of the same well at wavelengths 570 and 690 nm. IC50 values were determined as the concentration that caused 50% inhibition of cell proliferation compared to an untreated control. The results were calculated as the mean values of three independent experiments.

[9] = tested on: PC9 non-small-cell lung cancer cells; experiment: Antiproliferative MTT assay, 72 h; type: cell-based, human; settings: PC9, 72 h treatment
Method: as §4
(§5) PC9 human non-small-cell lung carcinoma cells, A375 human malignant melanoma cells, and CT26 WT murine colon carcinoma cells were maintained in DMEM (high glucose, no glutamine/sodium pyruvate) supplemented with L-glutamine solution (4 mM) (2% v/v), 10% (v/v) heat-inactivated fetal bovine serum (South American origin, European grade), and 1% (v/v) penicillin–streptomycin solution (containing penicillin G sodium salt: 10 000 units/mL and streptomycin sulfate: 10 mg/mL) and were passaged twice a week.

[10] = tested on: A2780 ovarian carcinoma cells; experiment: Antiproliferative MTT assay, 72 h; type: cell-based, human; settings: A2780, 72 h treatment
Method: as §4, §5

[11] = Platinum accumulation in organs and tumor by ICP-MS (CT26 study); type: in vivo, mice; settings: ICP-MS at end of the CT26 experiment
Method: Four-week-old female BALB/cAnNTac mice weighing 16–18 g were purchased from InVivos (Singapore). The animals were housed in Comparative Medicine (CM)-holding units at the National University of Singapore in a pathogen-free environment at constant temperature in a 12/12 h light/dark cycle environment. The mice were acclimatized for 3 days and given access to food and water ad libitum. The mouse colon carcinoma cells CT26 (1 × 10^5 cells in 100 μL of sterile PBS) were subcutaneously injected into the right flank of the mice. The administration of tested compounds was started when tumors became palpable (volume of ∼30 mm^3) on day 13. Subsequently, the animals were separated into 5 groups (n = 6 each) and injected i.p. with different compounds every other day up to 4 doses. Control mice were injected ip with 100 μL of sterile saline. The animals were controlled for pain and/or distress development, and the body weight and tumor size were closely monitored. All animals were alert and responsive during the whole experiment. The mice were euthanized when the diameter of the tumor reached 1.5 cm or upon development of ulceration. The tumor and organs (liver, kidney, and spleen) were collected […].
(§3) Samples were weighed and mineralized with highly pure 70% nitric acid (Pt: ≤0.01 μg kg^–1, TraceSELECT Ultra, Sigma Chemical Co.) for 3 h. Afterward, solutions were completely dried at 110 °C and 1000 μL of 1% HNO3 was added. The platinum content of each sample was measured by ICP-MS. The calibration curve was obtained using known concentrations of standard solutions purchased from Sigma Chemical Co.

[12] = tested on: kidney; settings: mouse, in vivo
Description: At the end of the experiments, mice were euthanized, and the tumor, spleen, liver, and kidneys were isolated and analyzed in terms of platinum content by ICP-MS (Figure 4F).
All of the kidney (left kidney) samples were flash-frozen immediately after weighing for cryosections for the histopathological evaluation using H&E staining technique. The tissues were embedded in the OCT compound and 10 μm thick sections were cut and placed onto glass slides using the Leica CM3050 S Cryostat. The slides were dried in a desiccator for approximately 1 h before rinsing in water. Sections are ready for staining immediately after rinse. The slides were stained with H&E (Hematoxylin and eosin) using Leica Autostainer XL. Then, the slides were dehydrated through ascending series of ethanol to xylene before being coverslipped using Leica Coverslipper CV5030. The slides were imaged using the LABOMED Opti CX biological microscope. At least two sections of each kidney sample were stained and 5–10 images were taken for each section under 10× and 40× magnifications. The images were analyzed for histopathological changes by two pathologists in a blinded manner.

[13] = tested on: CT26 murine colon cancer cells; experiment: Antiproliferative MTT assay, 72 h; type: cell-based; settings: CT26, 72 h treatment
Method: as §4, §5

[14] = tested on: A2780cisR cisplatin-resistant ovarian carcinoma cells; experiment: Antiproliferative MTT assay, 72 h; type: cell-based, human; settings: 72 h treatment
Method: as §4, §5

[15] = tested on: A375 melanoma cells; experiment: Antiproliferative MTT assay, 72 h; type: cell-based, human
Method: as §4, §5

[16] = Platinum accumulation in the DRG by ICP-MS; type: in vivo, mice; settings: day 7 after injections on days 1, 3, 5
Method: To explore whether the differences in the behavioral tests between cisplatin, cisplatin + paclitaxel, and cisPt(Pac)(OH) correlate with platinum accumulation in the DRG, we quantified the platinum in the DRG.
Afterward, on days 7–10, animals from each group were anesthetized using isoflurane and decapitated. Thereafter, DRG were removed and placed in DDW at room temperature.
as §3

[17] = Body weight changes in the CT26 efficacy study (general toxicity); type: in vivo, mice; settings: i.p., equimolar doses
Method: Four-week-old female BALB/cAnNTac mice weighing 16–18 g were purchased from InVivos (Singapore). The animals were housed in Comparative Medicine (CM)-holding units at the National University of Singapore in a pathogen-free environment at constant temperature in a 12/12 h light/dark cycle environment. The mice were acclimatized for 3 days and given access to food and water ad libitum. The mouse colon carcinoma cells CT26 (1 × 10^5 cells in 100 μL of sterile PBS) were subcutaneously injected into the right flank of the mice. The administration of tested compounds was started when tumors became palpable (volume of ∼30 mm^3) on day 13. Subsequently, the animals were separated into 5 groups (n = 6 each) and injected i.p. with different compounds every other day up to 4 doses. Control mice were injected ip with 100 μL of sterile saline. The animals were controlled for pain and/or distress development, and the body weight and tumor size were closely monitored. […] The mice were euthanized when the diameter of the tumor reached 1.5 cm or upon development of ulceration.

CC(=O)[O][Pt]1([O]C(C)=O)[O]C(=O)C(=O)[O]1.NC1CCCCC1N [Oxali(OAc)2]
neuropathic pain by withdrawal thresholds to mechanical stimuli ([1]; male and female mice, 5.19 mg/kg i.p. days 1, 3, 5): did not induce neuropathic pain
t1/2 RPMI 1640 [2]: 742 h
t1/2 10 equiv Asc [3]: 63 h

CC(=O)[O][Pt]([Cl])([Cl])[O]C(C)=O.N.N [cisPt(OAc)2]
t1/2 RPMI 1640 [2]: 120 h
cold allodynia [4]: significantly reduced cold allodynia
thermal hyperalgesia [5]: significantly reduced
ongoing (spontaneous) pain [6]: did not induce any ongoing pain
t1/2 10 equiv Asc [3]: 7.8 h

N.N.[Cl][Pt][Cl] [cisplatin]
mechanical allodynia (in words) ([1]; von Frey): persistent reduction in the withdrawal threshold
reduction of withdrawal threshold ([1]; von Frey, compared with untreated mice): about 95%
Inhibition of Tumor Growth (TGI) [7]: 41%
IC50 values (in words) [8]: low μM
IC50 [9]: 5290 ± 1750 nM
IC50 [10]: 1180 ± 130 nM
levels of Pt in the kidneys [11]: high levels of Pt
platinum levels in the tumor [11]: rather similar
histopathological changes of the kidney tubules [12]: focal tubular necrosis
IC50 [13]: 5890 ± 1190 nM
ongoing (spontaneous) pain [6]: substantial spontaneous pain
IC50 [14]: 16200 ± 3140 nM
IC50 ([15]; A375, 72 h treatment): 1910 ± 620 nM

CC(=O)O[C@H]1C(=O)[C@@]2(C)[C@H]([C@H](OC(=O)c3ccccc3)[C@]3(O)C[C@H](OC(=O)[C@H](O)[C@@H](NC(=O)c4ccccc4)c4ccccc4)C(C)=C1C3(C)C)[C@]1(OC(C)=O)CO[C@@H]1C[C@@H]2O [paclitaxel]
mechanical allodynia (in words) ([1]; von Frey): persistent reduction in the withdrawal threshold
Inhibition of Tumor Growth (TGI) [7]: 27%
IC50 values (in words) [8]: low nM
IC50 ([9]; Homo sapiens): 4.5 ± 2 nM
IC50 ([10]; Homo sapiens): 2.2 ± 1 nM
IC50 ([13]; Mus musculus): 384 ± 109 nM
ongoing (spontaneous) pain [6]: substantial spontaneous pain
IC50 ([14]; Homo sapiens): 3 ± 1 nM
IC50 ([15]; Homo sapiens, A-375, A375, 72 h treatment): 14 ± 4 nM

ctc-[Pt(NH3)2(Pac)(OH)Cl2] [cisPt(Pac)(OH)]
t1/2 RPMI 1640 [2]: 35 h
Inhibition of Tumor Growth (TGI) [7]: 65%
platinum levels in the DRG [16]: lower than after treatment with cisplatin or the co-treatment with cisplatin and paclitaxel
cold allodynia [4]: significantly reduced cold allodynia
IC50 values (in words) [8]: low nM
IC50 [9]: 6 ± 1 nM
thermal hyperalgesia [5]: significantly reduced
IC50 [10]: 4.5 ± 2 nM
levels of Pt in the kidneys [11]: much lower levels
platinum levels in the tumor [11]: rather similar
kidney toxicity (creatinine and histopathology) [12]: lower kidney toxicity
IC50 [13]: 406 ± 106 nM
ongoing (spontaneous) pain [6]: did not induce any ongoing pain
body weight loss compared to the control [17]: did not exhibit any substantial weight loss
IC50 [14]: 5.9 ± 0.1 nM
t1/2 10 equiv Asc [3]: 0.16 h
IC50 ([15]; A375, 72 h treatment): 18 ± 3 nM
